Results as given in article PMC7700423, “Differential Effects of 1α,25-Dihydroxyvitamin D3 on the Expressions and Functions of Hepatic CYP and UGT Enzymes and Its Pharmacokinetic Consequences In Vivo” (Pharmaceutics, 2020).

How the values were obtained:
[1] = Serum chemistry for liver function after 1,25(OH)2D3 treatment; format: in vivo, rat; details: fifth day after 2.56 nmol/kg/day i.p. for 4 days, n = 3
Description: Male Sprague-Dawley (SD) rats (8 weeks, 260–280 g) were purchased from Nara Biotech Co. (Seoul, Korea). Animals were maintained in cages under controlled conditions under a 12-h dark/light cycle with free access to food and tap water, acclimated for at least five days in the laboratory before experiments, and allocated to a control group or 1,25(OH)2D3-treated group. The 1,25(OH)2D3 dosing solution was prepared by diluting 1,25(OH)2D3 in ethanol with 5 mL of corn oil (2.56 nmol/mL of final concentration). The dosing solution for the control group was prepared but the 1,25(OH)2D3 was omitted. The dosing solutions were administered intraperitoneally to rats at a dose of 1 mL/kg/day (2.56 nmol/kg/day as 1,25(OH)2D3) over four consecutive days. On the fifth day, rats were used for pharmacokinetic study.
Rat serum was obtained from whole blood on the fifth day after the 1,25(OH)2D3 treatment. The assay of total protein, albumin, serum glutamic oxaloacetic transaminase (sGOT), and serum glutamic pyruvic transaminase (sGPT) was performed by Green Cross Reference Laboratory (Seoul, Korea).

hepatic Ugt1a6 protein = test: Hepatic protein expression by Western blotting; format: in vivo, rat; details: 2.56 nmol/kg/day i.p. for 4 days, n = 5, p = 0.5192
Description: (§1) Male Sprague-Dawley (SD) rats (8 weeks, 260–280 g) were purchased from Nara Biotech Co. (Seoul, Korea). […] The dosing solution for the control group was prepared but the 1,25(OH)2D3 was omitted. […] On the fifth day, rats were used for pharmacokinetic study.

liver tissue = test: Liver histology (H&E) after 1,25(OH)2D3 treatment; format: in vivo, rat; details: H&E sections after four days of treatment
Description: as §1

hepatic Cyp2b1 protein = test: Hepatic protein expression by Western blotting; format: in vivo, rat; details: 2.56 nmol/kg/day i.p. for 4 days, n = 5, p = 0.0006
Description: (§2) (Seoul, Korea). […] On the fifth day, rats were used for pharmacokinetic study. For protein extraction, the rat liver tissues were homogenized in RIPA buffer (#89900, ThermoFisher Scientific, Waltham, MA, USA) with protease/phosphatase inhibitors using a Diax 900 homogenizer. The homogenized liver samples were incubated in ice for 30 min (for complete lysis) with vortexing every 5 min, and then centrifuged at 14,000× g for 30 min. The supernatants were collected and diluted by 10 times. The protein levels were quantified using the BCA Protein Assay Kit (#23227, ThermoFisher Scientific, Waltham, MA, USA) with bovine serum albumin (BSA) standards. Total protein lysates were subjected to Western blot analysis. Lysates were mixed with 2X Laemmli buffer (Bio-Rad) supplemented with β-mercaptoethanol (Bio-Rad) and boiled for 5 min. […] Immunoblotting was performed with the following antibodies: rabbit CYP2C11 antibody (#ab3571, Abcam, Cambridge, UK), rabbit UGT1A6 antibody (#ab157476, Abcam, Cambridge, UK) and mouse CYP2B1/B2 antibody (#sc-53244, Santa Cruz Biotechnology, Dallas, TX, USA) and HRP-conjugated β-actin mouse antibody (Sigma; cat#A3854; 1:10,000). The following secondary antibodies were used: HRP-conjugated goat antibody to mouse IgG (Genetex; cat# GTX-213111-01, 1:5000), HRP-conjugated goat antibody to rabbit IgG (Genetex; cat# GTX-213110-01; 1:5000). Then, the bands were visualized via chemiluminescence (#34577, ThermoFisher Scientific, Waltham, MA, USA). Densitometric analysis of the bands was performed using ImageJ software (NIH; rsb.info.nih.gov/ij).

hepatic Cyp2b2 protein = test: Hepatic protein expression by Western blotting; format: in vivo, rat; details: 2.56 nmol/kg/day i.p. for 4 days, n = 5, p = 0.1728
Description: as §2

hepatic Cyp2c11 protein = test: Hepatic protein expression by Western blotting; format: in vivo, rat; details: 2.56 nmol/kg/day i.p. for 4 days, n = 5, p = 0.0001
Description: as §2

hepatic Ugt1a1 mRNA = test: Hepatic mRNA expression by qPCR; format: in vivo, rat; details: 2.56 nmol/kg/day i.p. for 4 days, n = 4-5
Description: as §1
(§3) Collected livers were frozen immediately with liquid nitrogen and stored at −80 °C. Trizol reagent in RNAiso Plus (Takara Bio, Inc., Shiga, Japan) was used to extract RNA from 100-mg tissue homogenates according to the manufacturer’s protocol. After purities and total RNA concentrations extracted from liver samples were determined at a wavelength of 260/280 nm with a Nanodrop 2000c spectrophotometer (Thermo Scientific, Waltham, MA, USA), synthesis of cDNA was processed from 1 μg of total RNA using the following conditions: incubation at 50 °C for 1 h, inactivation at 95 °C for 5 min, and cooling to 4 °C. The synthesized cDNA was then subjected to qPCR assays using SYBR® Premix Ex TagTM on Stratagene Mx3005P (Agilent Technologies, Boblingen, Germany) using the following conditions: 95 °C for 10 min and 40 cycles of 95 °C for 15 s and 55 °C for 30 s. A “Comparative Quantitation” mode was selected, and fold expressions were calculated using the delta-delta method 2^−(△△Ct). GAPDH was used as the internal reference gene for normalization. The forward and reverse primers used for qPCR analysis are listed in Supplementary Table S1 [2, 25, 28, 29].

hepatic Cyp2b1 mRNA = test: Hepatic mRNA expression by qPCR; format: in vivo, rat; details: 2.56 nmol/kg/day i.p. for 4 days, n = 4-5, p = 0.006
Description: as §1, §3

hepatic Ugt2b3 mRNA = test: Hepatic mRNA expression by qPCR; format: in vivo, rat; details: 2.56 nmol/kg/day i.p. for 4 days, n = 4-5
Description: as §1, §3

hepatic Ugt1a7 mRNA = test: Hepatic mRNA expression by qPCR; format: in vivo, rat; details: 2.56 nmol/kg/day i.p. for 4 days, n = 4-5
Description: as §1, §3

hepatic Ugt2b1 mRNA = test: Hepatic mRNA expression by qPCR; format: in vivo, rat; details: 2.56 nmol/kg/day i.p. for 4 days, n = 4-5
Description: as §1, §3

hepatic Cyp2c11 mRNA = test: Hepatic mRNA expression by qPCR; format: in vivo, rat; details: 2.56 nmol/kg/day i.p. for 4 days, n = 4-5, p = 0.001
Description: as §1, §3

hepatic Cyp2d2 mRNA = test: Hepatic mRNA expression by qPCR; format: in vivo, rat; details: 2.56 nmol/kg/day i.p. for 4 days, n = 4-5
Description: as §1, §3

hepatic Ugt1a6 mRNA = test: Hepatic mRNA expression by qPCR; format: in vivo, rat; details: 2.56 nmol/kg/day i.p. for 4 days, n = 4-5
Description: as §1, §3

hepatic Ugt1a8 mRNA = test: Hepatic mRNA expression by qPCR; format: in vivo, rat; details: 2.56 nmol/kg/day i.p. for 4 days, n = 4-5
Description: as §1, §3

hepatic Cyp1a2 mRNA = test: Hepatic mRNA expression by qPCR; format: in vivo, rat; details: 2.56 nmol/kg/day i.p. for 4 days, n = 4-5
Description: as §1, §3

hepatic Cyp2c6 mRNA = test: Hepatic mRNA expression by qPCR; format: in vivo, rat; details: 2.56 nmol/kg/day i.p. for 4 days, n = 4-5
Description: as §1, §3

[2] = substrate: CC(NC(C)(C)C)C(=O)c1cccc(Cl)c1
[3] = substrate: CCCCNC(=O)NS(=O)(=O)c1ccc(C)cc1

Molecule `C=C1/C(=C\C=C2/CCC[C@]3(C)[C@@H]([C@H](C)CCCC(C)(C)O)CC[C@@H]23)C[C@@H](O)C[C@@H]1O` [1,25(OH)2D3, 1α,25-dihydroxyvitamin D3] has an Albumin [1] of 3.97 ± 0.15 g/dL, a Total protein [1] of 5.73 ± 0.25 g/dL and a sGOT [1] of 158 ± 35 IU/L. For the same molecule, the sGPT [1] was 22.7 ± 3.2 IU/L, the “Hepatic Ugt1a6 protein expression vs control rats” value (hepatic Ugt1a6 protein) was “remained unchanged” and the “Damage to liver tissue (histology)” value (liver tissue) was “no apparent evidence of damage to liver tissue”. The “Hepatic Cyp2b1 protein expression vs control rats” value (hepatic Cyp2b1 protein) was “significantly decreased”, the “Hepatic Cyp2b2 protein expression vs control rats” value (hepatic Cyp2b2 protein) was “lower, but this difference is not significant” and the “Hepatic Cyp2c11 protein level vs control rats” value (hepatic Cyp2c11 protein) was “significantly lower”. For the same molecule, the “mRNA expression of hepatic Ugt1a1 vs control rats” value (hepatic Ugt1a1 mRNA) was “no significant differences”, the “mRNA expression of hepatic Cyp2b1 vs control rats” value (hepatic Cyp2b1 mRNA) was “significantly lower” and the “mRNA expression of hepatic Ugt2b3 vs control rats” value (hepatic Ugt2b3 mRNA) was “no significant differences”. For the same molecule, the “mRNA expression of hepatic Ugt1a7 vs control rats” value (hepatic Ugt1a7 mRNA) was “no significant differences”, the “mRNA expression of hepatic Ugt2b1 vs control rats” value (hepatic Ugt2b1 mRNA) was “no significant differences” and the “mRNA expression of hepatic Cyp2c11 vs control rats” value (hepatic Cyp2c11 mRNA) was “significantly lower”. For the same molecule, the “mRNA expression of hepatic Cyp2d2 vs control rats” value (hepatic Cyp2d2 mRNA) was “no significant differences”, the “mRNA expression of hepatic Ugt1a6 vs control rats” value (hepatic Ugt1a6 mRNA) was “significantly lower” and the “mRNA expression of hepatic Ugt1a8 vs control rats” value (hepatic Ugt1a8 mRNA) was “no significant differences”. The “mRNA expression of hepatic Cyp1a2 vs control rats” value (hepatic Cyp1a2 mRNA) was “no significant differences” and the “mRNA expression of hepatic Cyp2c6 vs control rats” value (hepatic Cyp2c6 mRNA) was “no significant differences”.

B1: Cyp2b1 (Rattus norvegicus) (protein)
chain: MEPTILLLLALLVGFLLLLVRGHPKSRGNFPPGPRPLPLLGNLLQLDRGGLLNSFMQLREKYGDVFTVHLGPRPVVMLCGTDTIKEALVGQAEDFSGRGTIAVIEPIFKEYGVIFANGERWKALRRFSLATMRDFGMGKRSVEERIQEEAQCLVEELRKSQGAPLDPTFLFQCITANIICSIVFGERFDYTDRQFLRLLELFYRTFSLLSSFSSQVFEFFSGFLKYFPGAHRQISKNLQEILDYIGHIVEKHRATLDPSAPRDFIDTYLLRMEKEKSNHHTEFHHENLMISLLSLFFAGTETSSTTLRYGFLLMLKYPHVAEKVQKEIDQVIGSHRLPTLDDRSKMPYTDAVIHEIQRFSDLVPIGVPHRVTKDTMFRGYLLPKNTEVYPILSSALHDPQYFDHPDSFNPEHFLDANGALKKSEAFMPFSTGKRICLGEGIARNELFLFFTTILQNFSVSSHLAPKDIDLTPKESGIGKIPPTYQICFSAR
With B1 the Km [2] was 171.70 ± 39.46 µM and the Vmax [2] was 35.20 ± 6.62 pmol/min/mg protein.

B2: Cyp2c11 (Rattus norvegicus) (protein)
chain: MDPVLVLVLTLSSLLLLSLWRQSFGRGKLPPGPTPLPIIGNTLQIYMKDIGQSIKKFSKVYGPIFTLYLGMKPFVVLHGYEAVKEALVDLGEEFSGRGSFPVSERVNKGLGVIFSNGMQWKEIRRFSIMTLRTFGMGKRTIEDRIQEEAQCLVEELRKSKGAPFDPTFILGCAPCNVICSIIFQNRFDYKDPTFLNLMHRFNENFRLFSSPWLQVCNTFPAIIDYFPGSHNQVLKNFFYIKNYVLEKVKEHQESLDKDNPRDFIDCFLNKMEQEKHNPQSEFTLESLVATVTDMFGAGTETTSTTLRYGLLLLLKHVDVTAKVQEEIERVIGRNRSPCMKDRSQMPYTDAVVHEIQRYIDLVPTNLPHLVTRDIKFRNYFIPKGTNVIVSLSSILHDDKEFPNPEKFDPGHFLDERGNFKKSDYFMPFSAGKRICAGEALARTELFLFFTTILQNFNLKSLVDVKDIDTTPAISGFGHLPPFYEACFIPVQRADSLSSHL
B2 showed a Km [3] of 232.83 ± 51.33 µM and a Vmax [3] of 683.37 ± 94.05 pmol/min/mg protein.
